Measured values: patent USRE48335E1, “Polymyxin derivatives as antimicrobial compounds” (priority 2014, dated 2020)
Values after ≈ are worked out from the molar mass of the structure shown. Like-named read-outs stand apart in the source and are kept apart here. Positions of bridges follow the written chain, without caps; N, C: chain ends. Non-standard residues stand in square brackets, D forms with d. Residues, ends and D or L forms follow the SMILES beside them. *: point of attachment. Benzoyl(4-(4-Cl-Ph)) = O=C(c1ccc(-c2ccc(Cl)cc2)cc1)*; Benzoyl(3-CF3) = O=C(c1cccc(C(F)(F)F)c1)*; X22 = CC(C)c1ccc(C(=O)*)cc1; dNle = CCCC[C@@H](N)C(=O)O; Dab = NCC[C@H](N)C(=O)O; Abu = CC[C@H](N)C(=O)O; Dap = NC[C@H](N)C(=O)O; Hexanoyl = CCCCCC(=O)*

How the values were obtained:
[1] = tested on: A. baumannii ATCC 19606; assay: In vivo efficacy in mouse blood infection model (neutropenic Swiss mice); settings: compound, free base 4 mg/kg intravenously 2 h after inoculation, blood at 4 h
How it was run: (§1)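 Activity expressed as Δlog10 CFU/mL blood, treated minus saline control, 4 h after a single 4 mg/kg (free base) i.v. dose given 2 h post-infection. Bloodstream infection from i.v. early log-phase inoculum in Swiss mice made neutropenic by i.p. cyclophosphamide on days −4 (150 mg/kg) and −1 (100 mg/kg).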

[2] = tested on: Pseudomonas aeruginosa
How it was run: (§2)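 Lipopeptides, as trifluoroacetate salts, tested for MIC in CAMHB by CLSI broth microdilution, with polymyxin B (sulphate) as comparator.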

[3] = tested on: Enterobacter cloacae
How it was run: as §2

[4] = tested on: Klebsiella pneumoniae
How it was run: as §2

[5] = tested on: Acinetobacter baumannii
How it was run: as §2

[6] = tested on: P. aeruginosa ATCC 27853; assay: In vivo efficacy in mouse blood infection model (neutropenic Swiss mice); settings: compound, free base 4 mg/kg intravenously 2 h after inoculation, blood at 4 h
How it was run: as §1

CC(C)C[C@H]1NC(=O)[C@H](CCN)NC(=O)[C@@H](NC(=O)[C@@H](CO)NC(=O)[C@@H](NC(=O)[C@H](CCN)NC(=O)c2cccc(C(F)(F)F)c2)[C@@H](C)O)CCNC(=O)[C@H]([C@@H](C)O)NC(=O)[C@H](CCN)NC(=O)[C@H](CCN)NC(=O)[C@H]([C@@H](C)O)NC1=O [Compound 19] ({Benzoyl(3-CF3)}-[Dab]T[dS][Dab][Dab][dL]T[Dab][Dab]T; lactam 4-C)
Δ log (Treated-Control at 4 h) [1]: −1.58 log10 CFU/mL
MIC [2]: 32 µg/mL (≈ 27.2 µM)
Minimum inhibitory concentration, Pa ATCC 27853 [2]: 32 µg/mL (≈ 27.2 µM)
Minimum inhibitory concentration, Pa FADDI-PA022 [2]: 16 µg/mL (≈ 13.6 µM)
Minimum inhibitory concentration, Pa FADDI-PA025 [2]: >32 µg/mL
Minimum inhibitory concentration, Ec FADDI-EC001 [3]: 1 µg/mL (≈ 0.85 µM)
Minimum inhibitory concentration, Ec FADDI-EC003 [3]: 0.5 µg/mL (≈ 0.425 µM)
Minimum inhibitory concentration, Ec FADDI-EC006 [3]: 0.5 µg/mL (≈ 0.425 µM)
MIC [4]: 0.5 µg/mL (≈ 0.425 µM)
MIC [5]: 2 µg/mL (≈ 1.7 µM)
Minimum inhibitory concentration, Ab A ATCC 17978 [5]: 0.5 µg/mL (≈ 0.425 µM)
Minimum inhibitory concentration, Ab ATCC 19606 [5]: 2 µg/mL (≈ 1.7 µM)
Minimum inhibitory concentration, Ab FADDI-AB034 [5]: 4 µg/mL (≈ 3.4 µM)

CC[C@@H]1NC(=O)[C@@H](CC(C)C)NC(=O)[C@H](CCN)NC(=O)[C@@H](NC(=O)[C@@H](CO)NC(=O)[C@@H](NC(=O)[C@H](CCN)NC(=O)c2cccc(C(F)(F)F)c2)[C@@H](C)O)CCNC(=O)[C@H]([C@@H](C)O)NC(=O)[C@H](CCN)NC(=O)[C@H](CCN)NC1=O [Compound 18] ({Benzoyl(3-CF3)}-[Dab]T[dS][Dab][Dab][dL][Abu][Dab][Dab]T; lactam 4-C)
Δ log (Treated-Control at 4 h) [1]: −1.57 log10 CFU/mL
MIC [2]: 8 µg/mL (≈ 6.89 µM)
Minimum inhibitory concentration, Pa ATCC 27853 [2]: 8 µg/mL (≈ 6.89 µM)
Minimum inhibitory concentration, Pa FADDI-PA022 [2]: 8 µg/mL (≈ 6.89 µM)
Minimum inhibitory concentration, Pa FADDI-PA025 [2]: 2 µg/mL (≈ 1.72 µM)
Minimum inhibitory concentration, Ec FADDI-EC001 [3]: 1 µg/mL (≈ 0.862 µM)
Minimum inhibitory concentration, Ec FADDI-EC003 [3]: 0.5 µg/mL (≈ 0.431 µM)
Minimum inhibitory concentration, Ec FADDI-EC006 [3]: 0.5 µg/mL (≈ 0.431 µM)
MIC [4]: 0.25 µg/mL (≈ 0.215 µM)
MIC [5]: 0.5 µg/mL (≈ 0.431 µM)
Minimum inhibitory concentration, Ab A ATCC 17978 [5]: 0.5 µg/mL (≈ 0.431 µM)
Minimum inhibitory concentration, Ab ATCC 19606 [5]: 0.5 µg/mL (≈ 0.431 µM)
Minimum inhibitory concentration, Ab FADDI-AB034 [5]: 0.5 µg/mL (≈ 0.431 µM)

CC[C@@H]1NC(=O)[C@@H](Cc2ccccc2)NC(=O)[C@H](CCN)NC(=O)[C@@H](NC(=O)[C@H](CN)NC(=O)[C@@H](NC(=O)[C@H](CCN)NC(=O)c2cccc(C(F)(F)F)c2)[C@@H](C)O)CCNC(=O)[C@H]([C@@H](C)O)NC(=O)[C@H](CCN)NC(=O)[C@H](CCN)NC1=O [Compound 122] ({Benzoyl(3-CF3)}-[Dab]T[Dap][Dab][Dab][dF][Abu][Dab][Dab]T; lactam 4-C)
Δ log (Treated-Control at 4 h) [1]: −1.58 log10 CFU/mL
Δ log (Treated-Control at 4 h) [6]: −3.70 log10 CFU/mL
MIC [2]: 2 µg/mL (≈ 1.68 µM)
Minimum inhibitory concentration, Pa ATCC 27853 [2]: 2 µg/mL (≈ 1.68 µM)
Minimum inhibitory concentration, Pa FADDI-PA022 [2]: 2 µg/mL (≈ 1.68 µM)
Minimum inhibitory concentration, Pa FADDI-PA025 [2]: 2 µg/mL (≈ 1.68 µM)
Minimum inhibitory concentration, Ec FADDI-EC001 [3]: 0.5 µg/mL (≈ 0.419 µM)
Minimum inhibitory concentration, Ec FADDI-EC003 [3]: 0.5 µg/mL (≈ 0.419 µM)
Minimum inhibitory concentration, Ec FADDI-EC006 [3]: 0.25 µg/mL (≈ 0.21 µM)
MIC [4]: 0.5 µg/mL (≈ 0.419 µM)
MIC [5]: 0.5 µg/mL (≈ 0.419 µM)
Minimum inhibitory concentration, Ab A ATCC 17978 [5]: 0.25 µg/mL (≈ 0.21 µM)
Minimum inhibitory concentration, Ab ATCC 19606 [5]: 0.5 µg/mL (≈ 0.419 µM)
Minimum inhibitory concentration, Ab FADDI-AB034 [5]: 0.5 µg/mL (≈ 0.419 µM)

CC(C)C[C@H]1NC(=O)[C@H](CCN)NC(=O)[C@@H](NC(=O)[C@H](CN)NC(=O)[C@@H](NC(=O)[C@H](CCN)NC(=O)c2ccc(-c3ccc(Cl)cc3)cc2)[C@@H](C)O)CCNC(=O)[C@H]([C@@H](C)O)NC(=O)[C@H](CCN)NC(=O)[C@H](CCN)NC(=O)[C@H](C)NC1=O [Compound 144] ({Benzoyl(4-(4-Cl-Ph))}-[Dab]T[Dap][Dab][Dab][dL]A[Dab][Dab]T; lactam 4-C)
Δ log (Treated-Control at 4 h) [6]: −2.98 log10 CFU/mL
MIC ([2]; P. aeruginosa ATCC 27853): 1 µg/mL (≈ 0.842 µM)
Minimum inhibitory concentration (MIC), Pa ATCC 27853 ([2]; Pseudomonas aeruginosa ATCC 27853, broth microdilution in CAMHB, TFA salt): 1 µg/mL
Minimum inhibitory concentration (MIC), Pa FADDI-PA022 ([2]; Pseudomonas aeruginosa FADDI-PA022, broth microdilution in CAMHB, TFA salt): 2 µg/mL
Minimum inhibitory concentration (MIC), Pa FADDI-PA025 ([2]; Pseudomonas aeruginosa FADDI-PA025, broth microdilution in CAMHB, TFA salt): 1 µg/mL
Minimum inhibitory concentration (MIC), Ec FADDI-EC001 ([3]; Enterobacter cloacae FADDI-EC001, broth microdilution in CAMHB, TFA salt): 2 µg/mL
Minimum inhibitory concentration (MIC), Ec FADDI-EC003 ([3]; Enterobacter cloacae FADDI-EC003, broth microdilution in CAMHB, TFA salt): 1 µg/mL
Minimum inhibitory concentration (MIC), Ec FADDI-EC006 ([3]; Enterobacter cloacae FADDI-EC006, broth microdilution in CAMHB, TFA salt): 1 µg/mL
MIC ([4]; K. pneumoniae FADDI-KP032): 1 µg/mL (≈ 0.842 µM)
MIC ([5]; A. baumannii ATCC 19606): 1 µg/mL (≈ 0.842 µM)
Minimum inhibitory concentration (MIC), Ab ATCC 17978 ([5]; Acinetobacter baumannii ATCC 17978, broth microdilution in CAMHB, TFA salt): 1 µg/mL
Minimum inhibitory concentration (MIC), Ab ATCC 19606 ([5]; Acinetobacter baumannii ATCC 19606, broth microdilution in CAMHB, TFA salt): 1 µg/mL
Minimum inhibitory concentration (MIC), Ab FADDI-AB034 ([5]; Acinetobacter baumannii FADDI-AB034, broth microdilution in CAMHB, TFA salt): 0.5 µg/mL

CCCCCC(=O)N[C@@H](CCN)C(=O)N[C@H](C(=O)N[C@@H](CCN)C(=O)N[C@H]1CCNC(=O)[C@H]([C@@H](C)O)NC(=O)[C@H](CCN)NC(=O)[C@H](CCN)NC(=O)[C@H]([C@@H](C)O)NC(=O)[C@@H](CC(C)C)NC(=O)[C@H](CCN)NC1=O)[C@@H](C)O [Compound 26] (Hexanoyl-[Dab]T[Dab][Dab][Dab][dL]T[Dab][Dab]T; lactam 4-C)
Δ log (Treated-Control at 4 h) [6]: −0.04 log10 CFU/mL
MIC [2]: 0.5 µg/mL (≈ 0.448 µM)
Minimum inhibitory concentration, Pa ATCC 27853 [2]: 0.5 µg/mL (≈ 0.448 µM)
Minimum inhibitory concentration, Pa FADDI-PA022 [2]: 2 µg/mL (≈ 1.79 µM)
Minimum inhibitory concentration, Pa FADDI-PA025 [2]: >32 µg/mL
Minimum inhibitory concentration, Ec FADDI-EC001 [3]: 0.5 µg/mL (≈ 0.448 µM)
Minimum inhibitory concentration, Ec FADDI-EC003 [3]: 0.5 µg/mL (≈ 0.448 µM)
Minimum inhibitory concentration, Ec FADDI-EC006 [3]: 1 µg/mL (≈ 0.897 µM)
MIC [4]: 2 µg/mL (≈ 1.79 µM)
MIC [5]: 16 µg/mL (≈ 14.3 µM)
Minimum inhibitory concentration, Ab A ATCC 17978 [5]: 8 µg/mL (≈ 7.17 µM)
Minimum inhibitory concentration, Ab ATCC 19606 [5]: 16 µg/mL (≈ 14.3 µM)
Minimum inhibitory concentration, Ab FADDI-AB034 [5]: 16 µg/mL (≈ 14.3 µM)

CC[C@@H]1NC(=O)[C@@H](CC(C)C)NC(=O)[C@H](CCN)NC(=O)[C@@H](NC(=O)[C@H](CN)NC(=O)[C@@H](NC(=O)[C@H](CCN)NC(=O)c2ccc(C(C)C)cc2)[C@@H](C)O)CCNC(=O)[C@H]([C@@H](C)O)NC(=O)[C@H](CCN)NC(=O)[C@H](CCN)NC1=O [Compound 99] (X22-[Dab]T[Dap][Dab][Dab][dL][Abu][Dab][Dab]T; lactam 4-C)
Δ log (Treated-Control at 4 h) [6]: −3.21 log10 CFU/mL
MIC [2]: 1 µg/mL (≈ 0.882 µM)
Minimum inhibitory concentration, Pa ATCC 27853 [2]: 1 µg/mL (≈ 0.882 µM)
Minimum inhibitory concentration, Pa FADDI-PA022 [2]: 0.5 µg/mL (≈ 0.441 µM)
Minimum inhibitory concentration, Pa FADDI-PA025 [2]: 2 µg/mL (≈ 1.76 µM)
Minimum inhibitory concentration, Ec FADDI-EC001 [3]: 0.25 µg/mL (≈ 0.221 µM)
Minimum inhibitory concentration, Ec FADDI-EC003 [3]: 0.25 µg/mL (≈ 0.221 µM)
Minimum inhibitory concentration, Ec FADDI-EC006 [3]: 0.5 µg/mL (≈ 0.441 µM)
MIC [4]: 0.5 µg/mL (≈ 0.441 µM)
MIC [5]: 1 µg/mL (≈ 0.882 µM)
Minimum inhibitory concentration, Ab A ATCC 17978 [5]: 0.25 µg/mL (≈ 0.221 µM)
Minimum inhibitory concentration, Ab ATCC 19606 [5]: 1 µg/mL (≈ 0.882 µM)
Minimum inhibitory concentration, Ab FADDI-AB034 [5]: 0.25 µg/mL (≈ 0.221 µM)

CCCC[C@H]1NC(=O)[C@H](CCN)NC(=O)[C@@H](NC(=O)[C@H](CN)NC(=O)[C@@H](NC(=O)[C@H](CCN)NC(=O)c2cccc(C(F)(F)F)c2)[C@@H](C)O)CCNC(=O)[C@H]([C@@H](C)O)NC(=O)[C@H](CCN)NC(=O)[C@H](CCN)NC(=O)[C@H](CC)NC1=O [Compound 121] ({Benzoyl(3-CF3)}-[Dab]T[Dap][Dab][Dab][dNle][Abu][Dab][Dab]T; lactam 4-C)
Δ log (Treated-Control at 4 h) [6]: −2.81 log10 CFU/mL
MIC [2]: 0.5 µg/mL (≈ 0.431 µM)
Minimum inhibitory concentration, Pa ATCC 27853 [2]: 0.5 µg/mL (≈ 0.431 µM)
Minimum inhibitory concentration, Pa FADDI-PA022 [2]: 1 µg/mL (≈ 0.863 µM)
Minimum inhibitory concentration, Pa FADDI-PA025 [2]: 2 µg/mL (≈ 1.73 µM)
Minimum inhibitory concentration, Ec FADDI-EC001 [3]: 0.25 µg/mL (≈ 0.216 µM)
Minimum inhibitory concentration, Ec FADDI-EC003 [3]: 0.25 µg/mL (≈ 0.216 µM)
Minimum inhibitory concentration, Ec FADDI-EC006 [3]: 0.25 µg/mL (≈ 0.216 µM)
MIC [4]: 0.25 µg/mL (≈ 0.216 µM)
MIC [5]: 0.5 µg/mL (≈ 0.431 µM)
Minimum inhibitory concentration, Ab A ATCC 17978 [5]: 0.5 µg/mL (≈ 0.431 µM)
Minimum inhibitory concentration, Ab ATCC 19606 [5]: 0.5 µg/mL (≈ 0.431 µM)
Minimum inhibitory concentration, Ab FADDI-AB034 [5]: 0.5 µg/mL (≈ 0.431 µM)
